“And” between values parts separate entries of the source, which are not always exact repeats. Equal values may be shown once. The source made the active and inactive calls. The rule behind the calls is not given here.
Assays:
[1] = system: V. cholerae BH1578 lux luminescence induction, 6 h; assay: Cholera quorum inducers, light production in absence of autoinducers, BH1578 strain, dry powder dose (AID 652239)
[2] = as above; settings: V. cholerae BH1578 lux luminescence induction, 6 h

Structure (SMILES): CCn1nnnc1NCc1ccc(C(C)C)cc1
- AC40 [1]: 0.563 µM

Structure (SMILES): Cc1cc(F)cc2nc3c(cc12)c(NC(=O)c1ccco1)nn3C
- AC40 [1]: 89.6 µM

Structure (SMILES): O=C(Nc1nnc(C2CCCC2)o1)C1CCCCC1
- activation ([2]; at 100 µM (top of the series)): -0.003% (inactive)

Structure (SMILES): O=C(Nc1nnc(-c2ccc3c(c2)OCCO3)o1)C1CCCCCC1
- AC40 [1]: > 100 µM (inactive)

Structure (SMILES): Cc1cc2nc3c(cc2cc1F)c(NC(=O)c1ccco1)nn3C
- AC40 [1]: 37.2 µM

Structure (SMILES): O=c1ncn(-c2cccc(Cl)c2)c2cc(Cl)ccc12
- activation ([2]; at 80 µM (top of the series)): 0.074% (inactive)

Structure (SMILES): Cc1cc2cc3c(NC(=O)c4ccco4)nn(C)c3nc2cc1C
- AC40 [1]: 42.4 µM

Structure (SMILES): Cc1ccc2cc3c(NC(=O)Cc4ccco4)nn(C)c3nc2c1
- activation ([2]; at 100 µM (top of the series)): 0.407% (inactive)

Structure (SMILES): COC(=O)c1ccccc1Nc1cccc(Cl)c1
- activation ([2]; at 80 µM (top of the series)): 0.61% (inactive)

Structure (SMILES): O=c1ncn(-c2ccccc2Cl)c2ccccc12
- activation ([2]; at 80 µM (top of the series)): 1.17% (inactive)

Structure (SMILES): Cc1nc(=O)c2ccccc2n1-c1cccc(Cl)c1
- activation ([2]; at 80 µM (top of the series)): 18.8% (inactive)

Structure (SMILES): O=c1ncn(-c2ccc(Cl)c(Cl)c2)c2ccccc12
- activation ([2]; at 80 µM (top of the series)): 0.032% (inactive)

Structure (SMILES): O=C(Cc1ccc(-c2ccccc2)cc1)N[C@@H]1CCOC1 (racemic)
- AC40 [1]: 96.9 µM

Structure (SMILES): O=C(CC1CCCCC1)Nc1nnc(-c2cccnc2)o1
- activation ([2]; at 80 µM (top of the series)): -0.004% (inactive)

Structure (SMILES): Cn1nc(NC(=O)c2ccco2)c2ccccc21
- AC40 [1]: > 100 µM (inactive)

Structure (SMILES): Cc1ccc2c(=O)ncn(-c3cccc(Cl)c3)c2c1
- activation ([2]; at 80 µM (top of the series)): 0.04% (inactive)

Structure (SMILES): CCOC(=O)c1ccccc1Nc1cccc(Cl)c1
- activation ([2]; at 80 µM (top of the series)): 0.006% (inactive)

Structure (SMILES): c1ccc(CNc2nnc(-c3ccc4c(c3)OCCO4)o2)cc1
- activation ([2]; at 100 µM (top of the series)): 0.001% (inactive)

Structure (SMILES): O=C1C(=O)N(Cc2ccccc2Cl)c2ccccc21
- activation ([2]; at 80 µM (top of the series)): 0.075% (inactive)

Structure (SMILES): O=c1nc(Cc2ccccc2)n(-c2cccc(Cl)c2)c2ccccc12
- activation ([2]; at 80 µM (top of the series)): 3.07% (inactive)

Structure (SMILES): Cc1ccc2cc3c(NC(=O)C4CCCC4)nn(C)c3nc2c1
- activation ([2]; at 80 µM (top of the series)): 11.2% (inactive)

Structure (SMILES): O=C(CC1CCCCC1)Nc1nnc(-c2ccc3c(c2)CCCC3)o1
- activation ([2]; at 35 µM (top of the series)): 0.052% (inactive)

Structure (SMILES): CN1CCC(C(=O)Nc2nnc(-c3ccc4c(c3)OCCO4)o2)CC1
- activation ([2]; at 100 µM (top of the series)): 0.02% (inactive)

Structure (SMILES): COc1ccc(-n2cnc(=O)c3ccccc32)cc1Cl
- activation ([2]; at 80 µM (top of the series)): 0.3% (inactive)

Structure (SMILES): CCCCCCCCCC(=O)[C@H](O)CC (racemic)
- AC40 [1]: 14.1 µM

Structure (SMILES): Cc1ccc2cc3c(NC(=O)c4cc5ccccc5o4)nn(C)c3nc2c1
- activation ([2]; at 100 µM (top of the series)): 0.014% (inactive)

Structure (SMILES): Cc1cc(F)c2cc3c(NC(=O)c4ccco4)nn(C)c3nc2c1
- AC40 [1]: > 100 µM (inactive)

Structure (SMILES): Cc1ccc(-n2cnc(=O)c3ccccc32)cc1Cl
- activation ([2]; at 80 µM (top of the series)): 0.07% (inactive)

Structure (SMILES): CCn1nnnc1N
- activation ([2]; at 100 µM (top of the series)): -0.013% (inactive)

Structure (SMILES): CC(C)(C)COC(=O)CSc1n[nH]c(=O)[nH]c1=O
- AC40 [1]: 12.5 µM

Structure (SMILES): O=C(Nc1nnc(-c2ccc3c(c2)OCCO3)o1)C1CCCCC1
- AC40 [1]: 7.31 µM and 2.33 µM

Structure (SMILES): COc1ccc2c(=O)ncn(-c3cccc(Cl)c3)c2c1
- activation ([2]; at 80 µM (top of the series)): 0.036% (inactive)

Structure (SMILES): COc1ccc(-c2nnc(NC(=O)C3CCCCC3)o2)cc1
- activation ([2]; at 100 µM (top of the series)): 17.9% (inactive)

Structure (SMILES): Cc1ccc2cc3c(NC(=O)c4cccs4)nn(C)c3nc2c1
- AC40 [1]: > 80 µM (inactive)

Structure (SMILES): Cn1ccc(NC(=O)c2ccco2)n1
- activation ([2]; at 100 µM (top of the series)): 0.036% (inactive)

Structure (SMILES): O=C(Nc1nnc(-c2ccc3c(c2)OCCO3)o1)C1CCC1
- activation ([2]; at 100 µM (top of the series)): 0.037% (inactive)

Structure (SMILES): COc1cccc(-n2cnc(=O)c3ccccc32)c1
- activation ([2]; at 80 µM (top of the series)): 2.59% (inactive)

Structure (SMILES): CC(C)c1ccc2cc3c(NC(=O)c4ccco4)nn(C)c3nc2c1
- activation ([2]; at 100 µM (top of the series)): 0.153% (inactive)

Structure (SMILES): O=c1ncn(-c2cccc(Cl)c2)c2cccc(Cl)c12
- activation ([2]; at 80 µM (top of the series)): 0.031% (inactive)

Structure (SMILES): NC(=O)c1ccccc1Nc1cccc(Cl)c1
- activation ([2]; at 80 µM (top of the series)): 0.057% (inactive)

Structure (SMILES): Cc1ccc2cc3c(NC(=O)c4ccccn4)nn(C)c3nc2c1
- activation ([2]; at 100 µM (top of the series)): -0.001% (inactive)

Structure (SMILES): Cc1ccc2c(c1)c(=O)ncn2-c1cccc(Cl)c1
- activation ([2]; at 80 µM (top of the series)): 6.29% (inactive)

Structure (SMILES): O=C(Nc1nnc(-c2cccnc2)o1)C1CCCCC1
- AC40 [1]: > 100 µM (inactive)

Structure (SMILES): CC(C)(C)OC(=O)N1CCC(C(=O)Nc2nnc(-c3ccc4c(c3)OCCO4)o2)CC1
- activation ([2]; at 100 µM (top of the series)): 0.011% (inactive)

Structure (SMILES): O=C(Nc1nnc(-c2ccc3c(c2)CCCC3)o1)C1CCC1
- activation ([2]; at 80 µM (top of the series)): 0% (inactive)

Structure (SMILES): COc1ccc(S(=O)(=O)Nc2nnc(-c3ccc4c(c3)OCCO4)o2)cc1
- activation ([2]; at 100 µM (top of the series)): 0.003% (inactive)

Structure (SMILES): Cc1ccc2cc3c(NC(=O)c4ccc(C)o4)nn(C)c3nc2c1
- activation ([2]; at 100 µM (top of the series)): 1.77% (inactive)

From PubChem BioAssay AID652239 (Broad Institute, 2013)
